These results are taken from ChEMBL document CHEMBL3739393, “Synthesis, Structural Characterization, and Bioactivity of the Stable Peptide RCB-1 from Ricinus communis” (J Nat Prod, 2015).

In data set [1] the test system is Escherichia coli. The data set can be described thus: Antibacterial activity against Escherichia coli ATCC 25922 incubated for 5 hrs. The note with it: ATCC 25922, 5 h. In kind it is functional, organism-based.
Data set [2] relates to Pectobacterium carotovorum. The data set can be described thus: Antibacterial activity against Erwinia carotovora incubated for 5 hrs. In kind it is functional, organism-based.
In data set [3] the test system is Aspergillus fumigatus. Nature of the data set: Antifungal activity against Aspergillus fumigatus incubated for 5 hrs. In kind it is functional, organism-based.
The test system of data set [4] is Erwinia amylovora. Nature of the data set: Antibacterial activity against Erwinia amylovora incubated for 5 hrs. In kind it is functional, organism-based.
Data set [5] concerns Staphylococcus aureus. Nature of the data set: Antibacterial activity against Staphylococcus aureus ATCC 29213 incubated for 5 hrs. The note with it: ATCC 29213, 5 h. It is filed as functional, organism-based.
Data set [6] in a line: Stability in human serum assessed as compound remaining after 24 hrs at 37 degC by LC/MS analysis. It is filed as ADME. The note with it: read-out: Stability.
Data set [7] has as its system Candida albicans. Nature of the data set: Antifungal activity against Candida albicans ATCC 90028 incubated for 5 hrs. The note with it: ATCC 90028, 5 h. It is filed as functional, organism-based.
Data set [8] has as its system Pseudomonas aeruginosa. Nature of the data set: Antibacterial activity against Pseudomonas aeruginosa ATCC 27853 incubated for 5 hrs. It is filed as functional, organism-based. The note with it: ATCC 27853, 5 h.
Data set [9] can be described thus: Cytotoxicity against human U937/GTB cells up to 50 uM by fluorescein diacetate-based fluorometric microculture cytotoxicity assay. It is filed as cell-based. The note with it: u-937/gtb.

Positions of bridges follow the written chain, without caps; N, C: chain ends. Residues, ends and D or L forms follow the SMILES beside them.

A word on the EC50: it is the concentration at which the effect is half-maximal. Read a low EC50 as a more potent agent.

Take `CSCC[C@@H]1NC(=O)[C@H](C(C)C)NC(=O)[C@H](CC(C)C)NC(=O)[C@@H]2CSSC[C@@H](C(=O)N[C@@H](CO)C(=O)O)NC(=O)[C@H](Cc3ccccc3)NC(=O)[C@H](CCCCN)NC(=O)[C@H](C(C)C)NC(=O)[C@H](CSSC[C@H](NC(=O)[C@H](CCCNC(=N)N)NC(=O)[C@H](C)N)C(=O)N2)NC(=O)[C@H](C)NC(=O)[C@H](Cc2ccccc2)NC(=O)[C@@H]2CCCN2C(=O)[C@@H]2CCCN2C(=O)[C@H](C(C)C)NC(=O)[C@@H]2CCCN2C1=O` (H-ARCCLVMPVPPFACVKFCS-OH; disulfide 3-14, 4-18): the 50% effective concentration (EC50) in data set [1], in data set [2], in [3], in [4], in data set [5] and in [7] was over 160 µM each time. The same compound had a half-maximal effective concentration (EC50) in [8] of 27 µM. The remaining at 24 h in data set [6] is over 95%. For the same compound, the Activity result in [9] was “Non-toxic”.
